Measurements reported in US20200246322A1, “METHOD FOR TREATING GLUTEN-RELATED ALLERGIES AND I[…] WITH LOPERAMIDE” (priority 2019, published 2020).

Test system: gluten intolerance
Assay: treating/preventing gluten intolerance with oral loperamide (experience of the inventor)
Type: in vivo, patient
Details: dosage titrated, as long as it is the type of gluten intolerance that responds to loperamide and the proper daily dosage is adhered to
Description: The present invention may include a new use of the existing OTC medication (generic: loperamide, brand: Immodium™) to be taken orally by patient suffering from gluten allergy/intolerance symptoms. The Loperamide is taken until the gluten allergy/intolerance symptoms are relieved.
The amount of loperamide needed to treat/prevent the symptoms of gluten intolerance can be quite a bit higher than the levels that can cause constipation. In that case, a slow increase in dosage may be necessary in order to create a resistance to the constipatory effects. Titration may be necessary to reach the proper dosage to eliminate the symptoms, starting preferably with the standard lowest dosage of loperamide recommended to treat diarrhea (2 mg tablet after the first loose stool, 1 tablet after each subsequent loose stool) and adding 1×2 mg tablet every 6 hours until stool consistency normalizes, at which point the symptoms of gluten intolerance will disappear completely, if it is the type of gluten intolerance that is treatable with loperamide. In the experience of the inventor, the rate of successfully treating/preventing gluten intolerance completely is 100%, as long as it is the type of gluten intolerance that responds to loperamide, and the proper daily dosage is adhered to once it is determined to be effective for the patient.

## CN(C)C(=O)C(CCN1CCC(O)(c2ccc(Cl)cc2)CC1)(c1ccccc1)c1ccccc1 [loperamide]
  rate of successfully treating/preventing gluten intolerance completely: 100%
